Data taken from patent US5208223A, “Phosphocholine derivative inhibitors of phospholipase A2” (American Cyanamid Company, priority 1992, dated 1993).
Where a name gives a salt, the structure may show the parent alone. Read-outs that look alike come from different tables or passages of the source.

Legend:
[1] = molecular target: T1, porcine pancreatic PLA2 (Sus scrofa, UniProt P00592); test: PLA2 assay: in vitro porcine pancreatic phospholipase A2, preincubation of drug+enzyme, substrate 2 nM; assay type: biochemical; conditions: preincubation, subs. con. 2; for IC50: read-out: IC50 (converted)
T1 construct: purchased Sigma
T1 sequence (P00592 23-146): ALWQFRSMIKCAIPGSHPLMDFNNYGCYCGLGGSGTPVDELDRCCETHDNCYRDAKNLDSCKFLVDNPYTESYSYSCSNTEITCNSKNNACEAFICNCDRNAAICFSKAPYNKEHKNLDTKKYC
Procedure: (§1) Phospholipase A2 activity was measured by a radiochemical assay in which labeled synthetic phosphatidylcholine substrate is converted by porcine pancreatic PLA2 to free radiolabeled arachidonate and lyso PC. Radiolabeled arachidonate is extracted from the reaction mixture and separated from unreacted substrate by column chromatography or TLC. Radioactivity (cpm) in samples is quantitated by liquid scintillation counting. Specific details are as follows:
(§2) Labeled substrate(1-stearyl-2-^3 H-arachidonylphosphatidylcholine; Amersham, sp. act. 84 (uCi/mmole, 0.025 to 0.2 uCi/assay tube and unlabeled substrates (Avanti), in sufficient quantity to give 20,000 cpm to 50,000 cpm and 10 μM to 1,000 μM final concentration/assay tube are dried under a stream of nitrogen. The PLA2 and mPLA2 assays utilized a […] substrate concentration. The mHPLA2 and HPLA2 assays (vida infra) utilized a 10 μM substrate concentration and the SmPLA2 assay utilized a substrate concentration ranging from 100 to 1000 μm. The substrate is then redissolved in 0.1M tris-HCl buffer, pH 9.0 containing 10 mM CaCl2 and 10 mM Na taurocholate detergent. The mixture is sonicated in a Kontes Sonifier to yield a homogeneous dispersion. The "mixed" micellar substrate is clear. An aliquot is reserved for a cpm count (total substrate). The total reaction volume is 500 μL; siliconized glassware or plasticware is used throughout. Enzyme (Sigma, sp. act.>690 U/mg protein and preferably 900 U/mg protein) is diluted 1:750 or 1:1000 in 0.1M tris-HCl buffer, pH 9.0 (without Ca^++ and detergent). Enzyme dilution depends on substrate concentration and required enzyme concentration.
(§3) The substrate in buffer is kept on ice until the reaction is started. The reaction is started by adding 10 μL of diluted enzyme solution to 490 μL of micellar substrate solution. Samples are incubated in a 37° C. water bath for 15 minutes with gentle mixing. The reaction is terminated by the addition of 100 μL of 1M fresh trichloroacetic acid (TCA) solution and chilling the tubes on ice for 30 minutes.
(§4) Samples (600 μL) are extracted with 3 ml CHCl3 /MeOH (2:1) for thin layer chromatography or in hexane/ether (9:1) for column chromatography. The phases are separated by gentle centrifugation at 700 rpm×5'. The organic phase is recovered.
(§5) Labeled arachidonate extracted with CHCl3 /MeOH is separated on silica gel G TLC plates (Analtech). Twenty μL of a 2 mg/ml internal standard solution of arachidonic acid (Sigma) is combined with 2-3 ml of the organic phase. The entire mixture is dried under nitrogen and redissolved in 50 μL of CHCl3 /MeOH (2:1). A 20 μL sample is counted in 10 ml of Beckman Redi-solv HP and spotted on silica gel G plates. The solvent system used to develop the plate is CHCl3 /MeOH/13.5N NH3 /H2 O (70:30:4:1). Plates are developed in a glass chamber for 1-11/2 hours, air dried, and the spots visualized in an iodine vapor chamber. Standards of phosphatidylcholine, lyso PC, and arachidonic acid (Sigma) are made as 2 mg/ml stocks in CHCl3 /MeOH (2:1) and spotted on plates. Spots corresponding to arachidonate and phospholipid are scraped and counted in 10 ml Beckman Redi-Solv HP scintillation fluid.
(§6) Samples are extracted with hexane/ether and the upper organic phase recovered. An aliquot is applied to a Silicar CC4 (Malincrodt) column. Columns are prepared using 1 ml of a 1:1 slurry of silicar CC4 in hexane/ether in a Pasteur pipet (approx. 2 cm height). Columns are rinsed with 500 μL of hexane/ether before adding the sample (300-600 μL) to the column. Columns are eluted with a total of 6 ml of hexane/ether. The 6 ml sample is counted in 10 ml of Beckman Redi-Solv HP scintillation fluid.
or the phospholipase A2 assay, compounds are prepared as 1 mg/ml stock solutions in MeOH and diluted appropriately in PBS.

[2] = molecular target: T1, porcine pancreatic PLA2; test: MHPLA2 assay: in vitro porcine pancreatic phospholipase A2, mixed micelle design, [s]=10 μm; assay type: biochemical; conditions: dose 25 μ/ml, subs. con. 10
Procedure: as §1, §2, §3, §4, §5, §6
or the phospholipase A2 assay, compounds are prepared as 1 mg/ml stock solutions in MeOH and diluted appropriately in PBS. […]

[3] = dose 10 μ/ml, read-out: % Inh. Avg.

Row | inhibition at 10 µg/mL [1, 3] | IC50 [1] | inhibition at 10 µg/mL ([1]; dose 10 μ/ml, read-out: % Inh.) | inhibition at 20 µg/mL ([1]; dose 20 μ/ml, read-out: % Inh.) | SMILES | other results
1 |  |  |  |  | CCCCCCCCCCCCCCCCOC[C@H](COP(=O)([O-])OCC[N+](C)(C)C)OP(=O)(OC)OCCCCCCCCCCCCCCCC (single isomer, unassigned) [3,5,8,10-Tetraoxa-4,9-diphosphahexacosan-1-aminium, 7-[(hexa] | % Inh. Avg. ([1]; dose 20 μ/ml): 28%
2 |  |  |  |  | CCCCCCCCCCCCCCCCOC[C@@H](COP(=O)([O-])OCC[N+](C)(C)C)OP(=O)(OC)OCCCCCCCCCCCCCCCC (single isomer, unassigned) [3,5,8,10-Tetraoxa-4,9-diphosphahexacosan-1-aminium, 7-[(hexa] | % Inh. [2]: 0%
3 |  |  |  |  | CCCCCCCCCCCCCCCCOCC(COP(=O)([O-])OCC[N+](C)(C)C)OP(=O)(OC)OCCCCC (single isomer, unassigned) [3,5,8,10-Tetraoxa-4,9-diphosphapentadecan-1-aminium, 7-[(hex] [3,5,8,10-Tetraoxa-4,9-diphosphapentadecan-1-aminium, 7-[(hexadecyloxy)methyl]-4-hydroxy-9-methoxy-N,N,N-trimethyl-, hydroxide, 4-(inner salt), 4,9-dioxide, less polar isomer] | % Inh. [2]: STIM
4 |  |  |  |  | CCCCCCCCCCCCCCCCOCC(COP(=O)([O-])OCC[N+](C)(C)C)CC(O)CCCCCCCCCCCCCCCC (single isomer, unassigned) [4-Hydroxy-7-(2-hydroxyoctadecyl)-N,N,N-trimethyl-3,5,9-triox] [4-Hydroxy-7-(2-hydroxyoctadecyl)-N,N,N-trimethyl-3,5,9-trioxa-4-phosphapentacosan-1-aminium, hydroxide, inner salt, 4-oxide isomer] | % Inh. ([1]; dose 10 μ/ml): 80%
5 |  | 2.32 µM |  |  | CCCCCCCCCCCCCCCCOCC(COP(=O)([O-])OCC[N+](C)(C)C)CC(O)CCCCCCCCCCCCCCCC (single isomer, unassigned) [4-Hydroxy-7-(2-hydroxyoctadecyl)-N,N,N-trimethyl-3,5,9-trioxa-4-phosphapentacosan-1-aminium, hydroxide, inner salt, 4-oxide isomer] | 
6 |  | 2.18 µM | 80% | 80% | CCCCCCCCCCCCCCCCOCC(COP(=O)([O-])OCC[N+](C)(C)C)CC(O)CCCCCCCCCCCCCCCC (single isomer, unassigned) [4-Hydroxy-7-(2-hydroxyoctadecyl)-N,N,N-trimethyl-3,5,9-trioxa-4-phosphapentacosan-1-aminium, hydroxide, inner salt, 4-oxide] | 
7 |  |  |  |  | CCCCCCCCCCCCCCCCOCC(COP(=O)([O-])OCC[N+](C)(C)C)OP(=O)(OC)OCCCCCCCCCCCCCCCC (centres unmarked) [3,5,8,10-Tetraoxa-4,9-diphosphahexacosan-1-aminium, 7-[(hexa] [3,5,8,10-Tetraoxa-4,9-diphosphahexacosan-1-aminium, 7-[(hexadecyloxy)methyl]-4-hydroxy-9-methoxy-N,N,N-trimethyl-, hydroxide, inner salt, 4,9-dioxide] | % Inh. Avg. ([1]; dose 10 μ/ml): 30%; % Inh. Avg. ([1]; dose 25 μ/ml): 75%; % Inh. Avg. ([1]; dose 50 μ/ml): 77%
8 | 20% |  |  |  | CCCCCCCCCCCCCCCCOP(=O)(O)OCCOP(=O)([O-])OCC[N+](C)(C)C [3,9-Dihydroxy-N,N,N-trimethyl-3,5,8,10-tetraoxa-4,9-diphosphahexacosan-1-aminium, hydroxide, 4-(inner salt) 4,9-dioxide] | 
9 | 40% |  |  |  | CCCCCCCCCCCCCCCCCCOP(=O)(O)OCCOP(=O)([O-])OCC[N+](C)(C)C [4,9-Dihydroxy-N,N,N-trimethyl-3,5,8,10-tetraoxa-4,9-diphosphaoctacosan-1-aminium, hydroxide, 4-(inner salt), 4,9-dioxide] | 
10 | 64% | 7.89 µM | 65% | 66% | CCCCCCCCCCCCCCCCOCC(COP(=O)([O-])OCC[N+](C)(C)C)CC(C)(O)CCCCCCCCCCCCCCCC (centres unmarked) [4-Hydroxy-7-(2-hydroxy-2-methyloctadecyl)-N,N,N-trimethyl-3,5,9-trioxa-4-phosphapentacosan-1-aminium, hydroxide, inner salt, 4-oxide] | 
11 | 62% | 5.2 µM | 59% | 52% | C=C(CCCCCCCCCCCCCCCC)CC(COCCCCCCCCCCCCCCCC)COP(=O)([O-])OCC[N+](C)(C)C (centres unmarked) [4-Hydroxy-N,N,N-trimethyl-7-(2-methyleneoctadecyl)-3,5,9-trioxa-4-phosphaoentacosan-1-aminium, hydroxide, inner salt, 4-oxide] | 
12 | 43% | 26 µM | 47% | 62% | CCCCCCCCCCCCCCCCOCC(CC=O)COP(=O)([O-])OCC[N+](C)(C)C (centres unmarked) [4-Hydroxy-N,N,N-trimethyl-7-(2-oxoethyl)-3,5,9-trioxa-4-phosphapentacosan-1-aminium, hydroxide, inner salt, 4-oxide] | 
13 | 60% | 7.92 µM | 59% | 62% | CCCCCCCCCCCCCCCCOCC(COP(=O)([O-])OCC[N+](C)(C)C)CC(=O)CCCCCCCCCCCCCCCC (centres unmarked) [4-Hydroxy-N,N,N-trimethyl-7-(2-oxooctadecyl)-3,5,9-trioxa-4-phosphapentacosan-1-aminium, hydroxide inner salt, 4 oxide] | 

Row | SMILES | inhibition at 10 µg/mL [1, 3] | IC50 [1] | inhibition at 10 µg/mL ([1]; dose 10 μ/ml, read-out: % Inh.) | inhibition at 20 µg/mL ([1]; dose 20 μ/ml, read-out: % Inh.) | other results
14 | CCCCCCCCCCCCCCCCOC[C@H](COP(=O)([O-])OCC[N+](C)(C)C)OP(=O)(OC)OCCCCCCCCCCCCCCCC (single isomer, unassigned) | 22% | 17.1 µM |  |  | inhibition at 20 µg/mL ([1]; dose 20 μ/ml, read-out: % Inh. Avg.): 34%
15 | CCCCCCCCCCCCCCCCOC[C@@H](COP(=O)([O-])OCC[N+](C)(C)C)OP(=O)(OC)OCCCCCCCCCCCCCCCC (single isomer, unassigned) |  | 4.12 µM |  |  | inhibition at 25 µg/mL ([1]; dose 25 μ/ml, read-out: % Inh.): 91%
16 | CCCCCCCCCCCCCCCCOCC(COP(=O)([O-])OCC[N+](C)(C)C)OP(=O)(OC)OCCCCC (single isomer, unassigned) [3,5,8,10-Tetraoxa-4,9-diphosphapentadecan-1-aminium, 7-[(hexadecyloxy)methyl]-4-hydroxy-9-methoxy-N,N,N-trimethyl-, hydroxide, 4-(inner salt), 4,9-dioxide, less polar isomer] |  | 8.05 µM | 76% | 83% | 
17 | CCCCCCCCCCCCCCCCOP(=O)(OC)OCCOP(=O)(O)OCCBr (centres unmarked) [2-[[(2-Bromoethoxy)hydroxyphosphinyl]oxy]ethyl hexadecyl phosphoric acid, methyl ester] | 21% |  |  |  | 
18 | CCCCCCCCCCCCCCCCOCC(COP(=O)([O-])OCC[N+](C)(C)C)CC1(CCCCCCCCCCCCCCCC)CO1 (centres unmarked) [7-[(2-Hexadecyloxiranyl)methyl]-4-hydroxy-N,N,N-trimethyl-3,5,9-trioxa-4-phosphapentacosan-1-aminium, hydroxide, inner salt, 4-oxide] |  | 2.41 µM | 78% | 75% | 
